Values of other authors, collected in patent US11554190B2, “Nanocarriers for the delivery of active ingredients” (President and Fellows of Harvard College, priority 2017, dated 2023).
Read-outs that look alike come from different tables or passages of the source.

What was measured:
Listeria on lettuce = conditions: vaporized from 10% w/v hydrogen peroxide solution
bacteria = conditions: same amount of time
[1] = test system: Acinetobacter on surfaces; conditions: peak hydrogen peroxide concentration 500-600 ppm
[2] = test system: surface deposited influenza; conditions: 90 ppm of vapor phase H2O2, similar times of treatment
pathogens on surfaces = conditions: 5% w/v, wet approach

SMILES: OO [hydrogen peroxide]
- log reduction in concentration of Listeria on lettuce (Listeria on lettuce): 3 log
- log reduction (bacteria; aqueous solution at 5% concentration): 2.2 log
- log reduction (bacteria; aqueous solution at 10% concentration): 3.5 log
- log reductions in the concentration of Acinetobacter on surfaces [1]: 4 log
- log reductions of surface deposited influenza [2]: 5 log
- effectiveness against pathogens on surfaces (pathogens on surfaces): ineffective
